Experiments:
[1] = system: CASOB (Cassia obtusifolia); assay: Postemergence herbicidal evaluation; format: in vivo, L.; conditions: postemergence
Procedure, shortened: (§1)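 Visual 0–9 injury scores versus control plants, covering stand, vigour, malformation, size, chlorosis and general appearance, taken four to five weeks post-spray and averaged over replicate tests. Plants were sprayed at roughly two weeks old and held on greenhouse benches.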

[2] = system: CHEAL (Chenopodium album); assay: Postemergence herbicidal evaluation; format: in vivo, L.; conditions: postemergence
Procedure, shortened: as §1

[3] = system: AMBEL (Ambrosia artemisifolia); assay: Postemergence herbicidal evaluation; format: in vivo, L.; conditions: postemergence
Procedure, shortened: as §1

[4] = system: SAGPY (Sagittaria pygmaea); assay: Flooded paddy, preemergence weed control; format: in vivo, L.; conditions: rated 3-4 weeks after treatment, 0-9 rating scale
Procedure, shortened: (§2)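 Under paddy conditions, seeds or vegetative propagules go into the top 0.5 cm of silt loam; the soil is then flooded to 1.5–3 cm and kept so. Treated pots stay in a greenhouse; response is rated 0-9 visually versus control.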

[5] = system: ECHORC (Echinochloa oryzoides); assay: Flooded paddy, postemergence weed control; format: in vivo, Echinochloa oryzoides (Ard.) Fritsch.; conditions: postemergence weeds, rated 3-4 weeks after treatment
Procedure, shortened: (§3)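 Weeds 3 to 5 cm tall plus rice seedlings at the 1.5 to 2.5 leaf stage were flooded, water held 1.5 to 3 cm above soil. Compounds in 50/50 v/v aqueous/acetone went directly into flood water at about 0.0320 to 0.2500 kg/ha. Greenhouse, 3 to 4 weeks; visual 0-9 rating versus control.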

[6] = system: ZEAMX (Corn, Field); assay: Preemergence herbicidal evaluation; format: in vivo, Zea mays, L.; conditions: rated 4-5 weeks after treatment
[7] = system: MOOVA (Monochoria vaginalis); assay: Flooded paddy, postemergence weed control; format: in vivo, Presl.; conditions: postemergence weeds, rated 3-4 weeks after treatment
Procedure, shortened: as §3

[8] = system: IPOHE (Ipomoea hederacea); assay: Preemergence herbicidal evaluation; format: in vivo, (L.) Jacq.; conditions: rated 4-5 weeks after treatment
[9] = system: ORYSAT (Rice, Tebonnet); assay: Flooded paddy, post-transplant rice tolerance; format: in vivo, Oryza sativa, (L.) Tebonnet; conditions: flooded paddy, post-transplant rice, rated 3-4 weeks after treatment, 0-9 rating scale
Procedure, shortened: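 Seedlings aged ten days are transplanted in pairs into undrained pots of silt loam, which are then flooded to a depth of 1.5 to 3 cm. After herbicide application the pots are kept in a greenhouse with the flood maintained. Plants are rated 0-9 by visual comparison with controls.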

[10] = system: GLXMAW (Soybean, Williams); assay: Preemergence herbicidal evaluation; format: in vivo, Glycine max, (L.) Merr. cv Williams; conditions: rated 4-5 weeks after treatment
[11] = system: CYPSE (Cyperus serotinus); assay: Flooded paddy, postemergence weed control; format: in vivo, Rottb.; conditions: postemergence weeds, rated 3-4 weeks after treatment
Procedure, shortened: as §3

[12] = system: CYPIR (Cyperus iria); assay: Flooded paddy, preemergence weed control; format: in vivo; conditions: rated 3-4 weeks after treatment, 0-9 rating scale
Procedure, shortened: as §2

[13] = system: SAGPY (Sagittaria pygmaea); assay: Flooded paddy, postemergence weed control; format: in vivo, L.; conditions: postemergence weeds, rated 3-4 weeks after treatment
Procedure, shortened: as §3

[14] = system: CYPIR (Cyperus iria); assay: Flooded paddy, postemergence weed control; format: in vivo; conditions: postemergence weeds, rated 3-4 weeks after treatment
Procedure, shortened: as §3

[15] = system: ORYSAT (Rice, Tebonnet); assay: Flooded paddy, post-transplant and postemergence rice tolerance; format: in vivo, Oryza sativa, (L.) Tebonnet; conditions: post-transplant rice, rated 3-4 weeks after treatment
Procedure, shortened: as §3

[16] = system: ABUTH (Abutilon theophrasti); assay: Postemergence herbicidal evaluation; format: in vivo, Medic.; conditions: postemergence
Procedure, shortened: as §1

[17] = system: GALAP (Galium aparine); assay: Postemergence herbicidal evaluation; format: in vivo; conditions: postemergence
Procedure, shortened: as §1

`Cn1c(C(F)(F)F)cc(=O)n(-c2ccc3snc(-c4nccs4)c3c2)c1=O` [Compound 53, 1-methyl-3-[3-(2-thiazolyl)-1,2-benzisothiazol-5-yl]-6-(trifluoromethyl)uracil] was tested, and the CASOB herbicidal rating ([1]; rate 0.0320 kg/ha) was 2.0, the CASOB herbicidal rating ([1]; rate 0.0620 kg/ha) was 4.0 and the CASOB herbicidal rating ([1]; rate 0.1250 kg/ha) was 3.0. The CHEAL herbicidal rating ([2]; rate 0.0320 kg/ha) was 4.5, the CHEAL herbicidal rating ([2]; rate 0.0620 kg/ha) was 7.0 and the CHEAL herbicidal rating ([2]; rate 0.1250 kg/ha) was 9.0. For the same compound, the AMBEL herbicidal rating ([3]; rate 0.0320 kg/ha) was 6.5, the AMBEL herbicidal rating ([3]; rate 0.0620 kg/ha) was 9.0 and the AMBEL herbicidal rating ([3]; rate 0.1250 kg/ha) was 9.0. For the same compound, the “herbicidal rating, SAGPY” value ([4]; rate 0.0080 kg/ha) was 0.0, the “herbicidal rating, SAGPY” value ([4]; rate 0.0320 kg/ha) was 4.3 and the “herbicidal rating, SAGPY” value ([4]; rate 0.1250 kg/ha) was 9.0. For the same compound, the “herbicide rating (0-9) ECHORC” value ([5]; 0.0320 kg/ha into flood water) was 2.0, the “herbicide rating (0-9) ECHORC” value ([5]; 0.0620 kg/ha into flood water) was 7.0 and the “herbicide rating (0-9) ECHORC” value ([5]; 0.1250 kg/ha into flood water) was 8.0. The “Preemergence herbicidal rating ZEAMX” value ([6]; Rate 0.0620 kg/ha) was 4.0, the “Preemergence herbicidal rating ZEAMX” value ([6]; Rate 0.1250 kg/ha) was 5.0 and the “Preemergence herbicidal rating ZEAMX” value ([6]; Rate 0.2500 kg/ha) was 7.0. The “herbicide rating (0-9) MOOVA” value ([7]; 0.0320 kg/ha into flood water) was 0.0, the “herbicide rating (0-9) MOOVA” value ([7]; 0.0620 kg/ha into flood water) was 0.0 and the “herbicide rating (0-9) MOOVA” value ([7]; 0.1250 kg/ha into flood water) was 2.0. The “Preemergence herbicidal rating IPOHE” value ([8]; Rate 0.0620 kg/ha) was 1.0, the “Preemergence herbicidal rating IPOHE” value ([8]; Rate 0.1250 kg/ha) was 3.0 and the “Preemergence herbicidal rating IPOHE” value ([8]; Rate 0.2500 kg/ha) was 8.0. For the same compound, the “herbicidal rating, ORYSAT (rice tolerance)” value (from here on “herbicidal rating, ORYSAT”) ([9]; rate 0.0080 kg/ha) was 0.5, the “herbicidal rating, ORYSAT” value ([9]; rate 0.0320 kg/ha) was 2.7 and the “herbicidal rating, ORYSAT” value ([9]; rate 0.1250 kg/ha) was 5.0. For the same compound, the “Preemergence herbicidal rating GLXMAW” value ([10]; Rate 0.0620 kg/ha) was 1.0, the “Preemergence herbicidal rating GLXMAW” value ([10]; Rate 0.1250 kg/ha) was 2.5 and the “Preemergence herbicidal rating GLXMAW” value ([10]; Rate 0.2500 kg/ha) was 6.5. For the same compound, the “herbicide rating (0-9) CYPSE” value ([11]; 0.0320 kg/ha into flood water) was 0.0, the “herbicide rating (0-9) CYPSE” value ([11]; 0.0620 kg/ha into flood water) was 8.0 and the “herbicide rating (0-9) CYPSE” value ([11]; 0.1250 kg/ha into flood water) was 8.0. The “herbicidal rating, CYPIR” value ([12]; rate 0.0080 kg/ha) was 9.0, the “herbicidal rating, CYPIR” value ([12]; rate 0.0320 kg/ha) was 8.3 and the “herbicidal rating, CYPIR” value ([12]; rate 0.1250 kg/ha) was 9.0. For the same compound, the “herbicide rating (0-9) SAGPY” value ([13]; 0.0320 kg/ha into flood water) was 0.0, the “herbicide rating (0-9) SAGPY” value ([13]; 0.0620 kg/ha into flood water) was 0.0 and the “herbicide rating (0-9) SAGPY” value ([13]; 0.1250 kg/ha into flood water) was 0.0. The “herbicide rating (0-9) CYPIR” value ([14]; 0.0320 kg/ha into flood water) was 0.0, the “herbicide rating (0-9) CYPIR” value ([14]; 0.1250 kg/ha into flood water) was 7.0 and the “herbicide rating (0-9) ORYSAT (rice tolerance)” value (from here on “herbicide rating (0-9) ORYSAT”) ([15]; 0.0320 kg/ha into flood water) was 2.0. For the same compound, the “herbicide rating (0-9) ORYSAT” value ([15]; 0.0620 kg/ha into flood water) was 4.0, the “herbicide rating (0-9) ORYSAT” value ([15]; 0.1250 kg/ha into flood water) was 6.0 and the ABUTH herbicidal rating ([16]; rate 0.0320 kg/ha) was 9.0. The ABUTH herbicidal rating ([16]; rate 0.0620 kg/ha) was 9.0, the ABUTH herbicidal rating ([16]; rate 0.1250 kg/ha) was 9.0 and the GALAP herbicidal rating ([17]; rate 0.0320 kg/ha) was 2.5. It also gave a GALAP herbicidal rating ([17]; rate 0.0620 kg/ha) of 3.0 and a GALAP herbicidal rating ([17]; rate 0.1250 kg/ha) of 7.0.
`Cn1c(C(F)(F)F)cc(=O)n(-c2cc3c(C4OCCO4)nsc3cc2F)c1=O` [Compound 61, 3-[3-(1,3-dioxolan-2-yl)-6-fluoro-1,2-benzisothiazol-5-yl]-1-methyl-6-(trifluoromethyl)uracil] showed a CASOB herbicidal rating ([1]; rate 0.0320 kg/ha) of 9.0, a CHEAL herbicidal rating ([2]; rate 0.0320 kg/ha) of 9.0 and a CHEAL herbicidal rating ([2]; rate 0.0620 kg/ha) of 9.0. The AMBEL herbicidal rating ([3]; rate 0.0320 kg/ha) was 9.0, the AMBEL herbicidal rating ([3]; rate 0.0620 kg/ha) was 9.0 and the “herbicidal rating, SAGPY” value ([4]; rate 0.0080 kg/ha) was 3.0. For the same compound, the “herbicidal rating, SAGPY” value ([4]; rate 0.0320 kg/ha) was 8.3, the “herbicidal rating, SAGPY” value ([4]; rate 0.1250 kg/ha) was 9.0 and the “herbicide rating (0-9) ECHORC” value ([5]; 0.0320 kg/ha into flood water) was 9.0. The “herbicide rating (0-9) ECHORC” value ([5]; 0.0620 kg/ha into flood water) was 9.0, the “herbicide rating (0-9) ECHORC” value ([5]; 0.1250 kg/ha into flood water) was 9.0 and the “Preemergence herbicidal rating ZEAMX” value ([6]; Rate 0.0002 kg/ha) was 0.0. For the same compound, the “Preemergence herbicidal rating ZEAMX” value ([6]; Rate 0.0160 kg/ha) was 8.3, the “Preemergence herbicidal rating ZEAMX” value ([6]; Rate 0.0320 kg/ha) was 9.0 and the “herbicide rating (0-9) MOOVA” value ([7]; 0.0320 kg/ha into flood water) was 9.0. For the same compound, the “herbicide rating (0-9) MOOVA” value ([7]; 0.0620 kg/ha into flood water) was 9.0, the “herbicide rating (0-9) MOOVA” value ([7]; 0.1250 kg/ha into flood water) was 9.0 and the “Preemergence herbicidal rating IPOHE” value ([8]; Rate 0.0002 kg/ha) was 0.0. The “Preemergence herbicidal rating IPOHE” value ([8]; Rate 0.0160 kg/ha) was 9.0, the “Preemergence herbicidal rating IPOHE” value ([8]; Rate 0.0320 kg/ha) was 9.0 and the “herbicidal rating, ORYSAT” value ([9]; rate 0.0080 kg/ha) was 8.0. For the same compound, the “herbicidal rating, ORYSAT” value ([9]; rate 0.0320 kg/ha) was 9.0, the “herbicidal rating, ORYSAT” value ([9]; rate 0.1250 kg/ha) was 9.0 and the “Preemergence herbicidal rating GLXMAW” value ([10]; Rate 0.0002 kg/ha) was 0.0. For the same compound, the “Preemergence herbicidal rating GLXMAW” value ([10]; Rate 0.0160 kg/ha) was 9.0, the “Preemergence herbicidal rating GLXMAW” value ([10]; Rate 0.0320 kg/ha) was 9.0 and the “herbicide rating (0-9) CYPSE” value ([11]; 0.0320 kg/ha into flood water) was 9.0. For the same compound, the “herbicide rating (0-9) CYPSE” value ([11]; 0.0620 kg/ha into flood water) was 9.0, the “herbicide rating (0-9) CYPSE” value ([11]; 0.1250 kg/ha into flood water) was 9.0 and the “herbicidal rating, CYPIR” value ([12]; rate 0.0080 kg/ha) was 8.7. The “herbicidal rating, CYPIR” value ([12]; rate 0.0320 kg/ha) was 9.0, the “herbicidal rating, CYPIR” value ([12]; rate 0.1250 kg/ha) was 9.0 and the “herbicide rating (0-9) SAGPY” value ([13]; 0.0320 kg/ha into flood water) was 6.0. The “herbicide rating (0-9) SAGPY” value ([13]; 0.0620 kg/ha into flood water) was 8.0, the “herbicide rating (0-9) SAGPY” value ([13]; 0.1250 kg/ha into flood water) was 9.0 and the “herbicide rating (0-9) CYPIR” value ([14]; 0.0320 kg/ha into flood water) was 9.0. For the same compound, the “herbicide rating (0-9) CYPIR” value ([14]; 0.0620 kg/ha into flood water) was 9.0, the “herbicide rating (0-9) CYPIR” value ([14]; 0.1250 kg/ha into flood water) was 9.0 and the “herbicide rating (0-9) ORYSAT” value ([15]; 0.0320 kg/ha into flood water) was 9.0. For the same compound, the “herbicide rating (0-9) ORYSAT” value ([15]; 0.0620 kg/ha into flood water) was 9.0, the “herbicide rating (0-9) ORYSAT” value ([15]; 0.1250 kg/ha into flood water) was 9.0 and the ABUTH herbicidal rating ([16]; rate 0.0320 kg/ha) was 9.0. It also gave an ABUTH herbicidal rating ([16]; rate 0.0620 kg/ha) of 9.0 and a GALAP herbicidal rating ([17]; rate 0.0320 kg/ha) of 9.0.
